# Measurements from ChEMBL document CHEMBL1201862, “PubChem BioAssay data set” (2004).
# The source made the active and inactive calls.
# Tests used:
# Genome polyprotein = Genome polyprotein (dengue virus type 2, UniProt P29990); experiment: Dengue-2 NS5 methyltransferase inhibitors, primary screen, biochemical, confirmation dose response (AID 588689); type: functional
# Protein skinhead-1 = target: T1, Protein skinhead-1 (Caenorhabditis elegans, UniProt P34707); type: functional
# T1 sequence (P34707 whole entry): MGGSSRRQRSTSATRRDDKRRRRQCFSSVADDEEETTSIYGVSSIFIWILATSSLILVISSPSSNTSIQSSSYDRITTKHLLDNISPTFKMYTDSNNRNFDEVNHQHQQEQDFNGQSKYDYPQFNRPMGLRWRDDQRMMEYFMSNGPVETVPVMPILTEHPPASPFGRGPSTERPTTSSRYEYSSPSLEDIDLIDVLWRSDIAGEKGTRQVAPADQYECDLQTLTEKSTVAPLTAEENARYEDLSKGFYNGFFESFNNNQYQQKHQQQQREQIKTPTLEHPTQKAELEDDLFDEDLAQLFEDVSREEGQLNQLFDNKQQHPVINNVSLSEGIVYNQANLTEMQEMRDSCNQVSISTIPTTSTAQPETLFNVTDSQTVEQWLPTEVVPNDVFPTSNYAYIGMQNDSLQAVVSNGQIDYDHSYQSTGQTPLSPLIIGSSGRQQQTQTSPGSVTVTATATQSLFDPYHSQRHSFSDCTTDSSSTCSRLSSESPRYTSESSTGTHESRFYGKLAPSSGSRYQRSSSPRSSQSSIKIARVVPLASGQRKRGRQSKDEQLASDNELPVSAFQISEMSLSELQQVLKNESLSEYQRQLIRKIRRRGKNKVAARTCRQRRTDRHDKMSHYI
# [1] = target: T2, Carboxy-terminal domain RNA polymerase II polypeptide A small phosphatase 1 (Homo sapiens, UniProt Q9GZU7); experiment: inhibitors of CTDSP1, concentration-response testing, biochemical assay, absorbance-based, actives from ultra-high-throughput screening (AID 540297); type: functional
# T2 sequence (Q9GZU7 whole entry): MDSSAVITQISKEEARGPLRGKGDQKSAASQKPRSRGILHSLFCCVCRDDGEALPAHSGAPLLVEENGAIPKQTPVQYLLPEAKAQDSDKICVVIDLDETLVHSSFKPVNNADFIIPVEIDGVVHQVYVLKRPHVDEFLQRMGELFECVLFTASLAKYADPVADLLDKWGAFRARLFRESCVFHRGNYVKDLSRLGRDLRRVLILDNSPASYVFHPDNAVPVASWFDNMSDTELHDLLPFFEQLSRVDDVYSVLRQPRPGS
# [2] = A cytotoxicity screen of small molecule inhibitors of the PhoP region in Salmonella typhi identified in the primary screen. [Related pubchem assays: 1850, 1864, 1985 ]; type: functional
# [3] = target: Induced myeloid leukemia cell differentiation protein Mcl-1 (Homo sapiens, UniProt Q07820); type: functional
# Sequence of Induced myeloid leukemia cell differentiation protein Mcl-1 (Q07820 whole entry): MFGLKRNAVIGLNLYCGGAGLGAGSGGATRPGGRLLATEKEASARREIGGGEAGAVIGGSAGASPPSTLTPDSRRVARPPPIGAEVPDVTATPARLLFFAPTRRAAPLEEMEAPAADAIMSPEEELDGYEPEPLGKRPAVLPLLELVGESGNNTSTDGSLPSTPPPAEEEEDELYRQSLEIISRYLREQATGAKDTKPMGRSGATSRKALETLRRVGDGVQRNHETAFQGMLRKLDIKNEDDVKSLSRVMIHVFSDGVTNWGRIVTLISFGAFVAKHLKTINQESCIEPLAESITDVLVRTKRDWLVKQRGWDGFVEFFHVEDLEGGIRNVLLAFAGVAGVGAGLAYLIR
# [4] = target: T3, Short transient receptor potential channel 4 (Mus musculus, UniProt Q9QUQ5); experiment: mouse TRPC4 channel activators, dose response, cell-based, HEK293 TRPC4/mu-opioid, Fluo-4 calcium (AID 434937); type: functional
# T3 sequence (Q9QUQ5 whole entry): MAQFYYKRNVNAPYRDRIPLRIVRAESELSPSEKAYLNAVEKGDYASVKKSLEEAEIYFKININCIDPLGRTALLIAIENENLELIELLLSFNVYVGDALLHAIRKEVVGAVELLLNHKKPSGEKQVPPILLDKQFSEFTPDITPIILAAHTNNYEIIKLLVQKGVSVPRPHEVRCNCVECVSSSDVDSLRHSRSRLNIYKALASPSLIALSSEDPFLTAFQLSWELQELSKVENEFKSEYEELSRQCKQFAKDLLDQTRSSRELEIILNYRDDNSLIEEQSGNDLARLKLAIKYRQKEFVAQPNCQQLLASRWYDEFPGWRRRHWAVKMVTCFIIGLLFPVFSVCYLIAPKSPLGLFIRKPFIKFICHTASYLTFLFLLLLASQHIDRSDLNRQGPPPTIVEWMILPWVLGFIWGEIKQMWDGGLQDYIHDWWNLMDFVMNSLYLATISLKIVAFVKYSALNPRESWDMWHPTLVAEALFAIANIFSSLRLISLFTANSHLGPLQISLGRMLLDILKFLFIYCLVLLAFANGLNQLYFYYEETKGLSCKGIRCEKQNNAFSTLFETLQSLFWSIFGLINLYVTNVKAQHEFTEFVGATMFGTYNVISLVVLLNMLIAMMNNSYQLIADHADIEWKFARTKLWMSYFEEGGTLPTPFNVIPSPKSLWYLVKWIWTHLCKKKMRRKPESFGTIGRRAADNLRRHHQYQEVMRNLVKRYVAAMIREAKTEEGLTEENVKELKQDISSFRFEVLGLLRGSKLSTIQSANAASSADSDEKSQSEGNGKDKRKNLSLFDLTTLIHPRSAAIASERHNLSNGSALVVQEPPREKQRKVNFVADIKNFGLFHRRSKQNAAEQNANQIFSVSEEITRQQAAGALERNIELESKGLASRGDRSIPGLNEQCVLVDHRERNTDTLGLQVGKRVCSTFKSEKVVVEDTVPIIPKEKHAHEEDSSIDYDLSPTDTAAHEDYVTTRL
# Large T antigen = Large T antigen (Simian virus 40, UniProt P03070); type: functional, Betapolyomavirus macacae;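 note: Confirmatory-stage PubChem screen for compounds that inhibit SV40 T antigen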
# Sequence of Large T antigen (P03070 whole entry): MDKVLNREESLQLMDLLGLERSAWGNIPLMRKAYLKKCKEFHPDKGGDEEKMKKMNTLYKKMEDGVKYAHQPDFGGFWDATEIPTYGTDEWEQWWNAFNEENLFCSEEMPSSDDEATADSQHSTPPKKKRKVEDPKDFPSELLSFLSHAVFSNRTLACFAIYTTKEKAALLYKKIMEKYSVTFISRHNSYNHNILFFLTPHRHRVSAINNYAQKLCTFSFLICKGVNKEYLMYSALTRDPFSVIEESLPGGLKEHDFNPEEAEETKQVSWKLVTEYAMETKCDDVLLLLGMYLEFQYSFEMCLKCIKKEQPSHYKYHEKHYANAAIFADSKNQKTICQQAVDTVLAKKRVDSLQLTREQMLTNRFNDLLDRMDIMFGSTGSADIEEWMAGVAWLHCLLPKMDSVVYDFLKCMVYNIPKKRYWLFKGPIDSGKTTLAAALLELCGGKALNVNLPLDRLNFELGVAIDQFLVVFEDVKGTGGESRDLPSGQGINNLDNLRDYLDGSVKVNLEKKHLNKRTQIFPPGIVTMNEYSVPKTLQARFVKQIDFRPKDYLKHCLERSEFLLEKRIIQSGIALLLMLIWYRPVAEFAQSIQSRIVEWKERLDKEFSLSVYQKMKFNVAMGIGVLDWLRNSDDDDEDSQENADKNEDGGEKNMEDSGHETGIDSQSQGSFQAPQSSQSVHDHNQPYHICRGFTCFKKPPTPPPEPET
# [5] = target: DNA dC->dU-editing enzyme APOBEC-3G (Homo sapiens, UniProt Q9HC16); experiment: Dose Response confirmation of small molecule APOBEC3G DNA Deaminase Inhibitors via a fluorescence-based single-stranded DNA deaminase assay. [Related pubchem assays (depositor defined):AID493012, AID493028]; type: functional
# Sequence of DNA dC->dU-editing enzyme APOBEC-3G (Q9HC16 whole entry, the tested form may be a part): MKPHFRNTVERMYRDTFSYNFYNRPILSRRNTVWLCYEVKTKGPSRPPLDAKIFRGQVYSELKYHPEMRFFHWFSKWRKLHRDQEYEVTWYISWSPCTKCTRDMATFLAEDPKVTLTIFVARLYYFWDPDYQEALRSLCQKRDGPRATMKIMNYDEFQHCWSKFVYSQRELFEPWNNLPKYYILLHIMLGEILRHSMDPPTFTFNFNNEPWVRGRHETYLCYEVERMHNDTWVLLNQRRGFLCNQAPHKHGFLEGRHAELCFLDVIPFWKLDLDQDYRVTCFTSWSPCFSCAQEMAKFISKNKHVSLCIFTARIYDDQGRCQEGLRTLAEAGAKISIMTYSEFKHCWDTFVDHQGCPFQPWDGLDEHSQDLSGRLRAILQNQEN
# Fatty acid synthase = Fatty acid synthase (Homo sapiens, UniProt P49327); experiment: FAS thioesterase domain inhibitors, dose response, biochemical, kinetic fluorescence intensity (AID 624326); type: functional;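 note: rate of fluorescence rise from hydrolysis of a fluorogenic O-methyl fluorescein ester substrate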
# Aminopeptidase N = target: T4, Aminopeptidase N (Plasmodium falciparum FcB1/Columbia, UniProt O96935); experiment: P. falciparum M1AAP inhibitors, biochemical, fluorogenic H-Leu-NHMec substrate, 1536-well (AID 1445); set-up: species or system Plasmodium falciparum 3D7, 3D7
# T4 sequence (O96935 whole entry): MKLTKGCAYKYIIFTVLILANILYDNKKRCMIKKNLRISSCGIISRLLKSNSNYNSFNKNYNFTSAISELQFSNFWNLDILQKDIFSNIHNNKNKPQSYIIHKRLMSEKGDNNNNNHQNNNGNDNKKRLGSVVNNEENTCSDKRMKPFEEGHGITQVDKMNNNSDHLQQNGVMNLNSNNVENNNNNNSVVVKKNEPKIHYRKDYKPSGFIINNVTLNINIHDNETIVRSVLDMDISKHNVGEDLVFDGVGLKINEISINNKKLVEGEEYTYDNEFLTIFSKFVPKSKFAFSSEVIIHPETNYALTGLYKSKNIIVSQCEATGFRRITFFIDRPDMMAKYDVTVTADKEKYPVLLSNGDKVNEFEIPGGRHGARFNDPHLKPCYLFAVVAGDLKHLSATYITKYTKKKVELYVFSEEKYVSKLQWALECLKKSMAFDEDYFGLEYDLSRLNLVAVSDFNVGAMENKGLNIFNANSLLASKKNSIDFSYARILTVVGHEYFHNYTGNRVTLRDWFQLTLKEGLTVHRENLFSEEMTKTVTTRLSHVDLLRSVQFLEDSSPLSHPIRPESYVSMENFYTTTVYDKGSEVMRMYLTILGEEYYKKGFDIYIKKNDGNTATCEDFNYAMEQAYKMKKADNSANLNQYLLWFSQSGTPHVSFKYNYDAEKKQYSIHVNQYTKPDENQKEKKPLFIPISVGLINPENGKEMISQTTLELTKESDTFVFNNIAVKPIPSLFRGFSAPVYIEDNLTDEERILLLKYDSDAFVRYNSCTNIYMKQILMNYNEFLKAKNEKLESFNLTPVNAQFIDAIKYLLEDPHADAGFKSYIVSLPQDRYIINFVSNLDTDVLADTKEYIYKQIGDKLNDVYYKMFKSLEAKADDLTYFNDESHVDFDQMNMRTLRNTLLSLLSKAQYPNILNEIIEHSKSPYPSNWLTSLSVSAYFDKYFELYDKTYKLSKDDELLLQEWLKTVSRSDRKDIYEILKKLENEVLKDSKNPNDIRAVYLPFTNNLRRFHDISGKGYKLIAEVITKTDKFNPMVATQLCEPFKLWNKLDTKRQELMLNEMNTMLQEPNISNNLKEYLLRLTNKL
# cells = type: functional
# [6] = microbe, parasite or virus in culture; type: functional; details: Mycobacterium tuberculosis
# [7] = THP-1 cell cytotoxicity, dose response, cytotoxicity control for non-replicating M. tuberculosis project (AID 489025); type: functional
# [8] = inhibitors of HIV Env-driven cell fusion, dose response, cherry-pick (AID 652057); type: functional, cell-based
# Paired box protein Pax-8 = Paired box protein Pax-8 (Homo sapiens, UniProt Q06710); experiment: inhibitors of PAX8-driven TPO luciferase reporter, dose response, RMG-I cells, cherry-pick (AID 687027); type: functional, cell-based;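 note: luciferase reporter driven by Pax8 target thyroperoxidase promoter measured by SteadyGlo luminescence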
# Sequence of Paired box protein Pax-8 (Q06710 whole entry, the tested form may be a part): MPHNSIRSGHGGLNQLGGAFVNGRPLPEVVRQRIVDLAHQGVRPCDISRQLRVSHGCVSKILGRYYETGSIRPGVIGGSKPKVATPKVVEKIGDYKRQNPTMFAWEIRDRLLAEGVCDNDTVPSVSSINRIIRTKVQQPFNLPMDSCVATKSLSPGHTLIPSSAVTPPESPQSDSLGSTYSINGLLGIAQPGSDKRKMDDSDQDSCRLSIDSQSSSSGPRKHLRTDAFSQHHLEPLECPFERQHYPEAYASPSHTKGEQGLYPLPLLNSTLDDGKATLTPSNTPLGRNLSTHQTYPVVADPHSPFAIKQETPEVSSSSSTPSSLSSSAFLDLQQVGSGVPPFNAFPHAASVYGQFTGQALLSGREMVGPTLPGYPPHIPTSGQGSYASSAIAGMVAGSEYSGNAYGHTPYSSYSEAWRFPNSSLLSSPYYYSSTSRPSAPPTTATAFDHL
# [9] = inhibitors of clade B AD8 Env fusion, dose response, cell-based, cherry-pick (AID 652062); type: functional;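 note: luciferase signal from cell-cell fusion driven by HIV-1 clade B AD8 Env; potency is for inhibitors of fusion seen as a drop in luminescence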
# [10] = NIH:OVCAR-3 ovarian cancer cell cytotoxicity, dose response, PAX8 inhibitor project, plate reader, dry powder samples (AID 743044); type: functional, cell-based
# [11] = cytotoxicity in OVCAR8 ovarian cancer cells, dose response, PAX8 project, cell-based, plate reader, dry powder samples (AID 743197); type: functional; details: OVCAR-8
# Sequence of Genome polyprotein (P29990 2492-3391 limits assumed): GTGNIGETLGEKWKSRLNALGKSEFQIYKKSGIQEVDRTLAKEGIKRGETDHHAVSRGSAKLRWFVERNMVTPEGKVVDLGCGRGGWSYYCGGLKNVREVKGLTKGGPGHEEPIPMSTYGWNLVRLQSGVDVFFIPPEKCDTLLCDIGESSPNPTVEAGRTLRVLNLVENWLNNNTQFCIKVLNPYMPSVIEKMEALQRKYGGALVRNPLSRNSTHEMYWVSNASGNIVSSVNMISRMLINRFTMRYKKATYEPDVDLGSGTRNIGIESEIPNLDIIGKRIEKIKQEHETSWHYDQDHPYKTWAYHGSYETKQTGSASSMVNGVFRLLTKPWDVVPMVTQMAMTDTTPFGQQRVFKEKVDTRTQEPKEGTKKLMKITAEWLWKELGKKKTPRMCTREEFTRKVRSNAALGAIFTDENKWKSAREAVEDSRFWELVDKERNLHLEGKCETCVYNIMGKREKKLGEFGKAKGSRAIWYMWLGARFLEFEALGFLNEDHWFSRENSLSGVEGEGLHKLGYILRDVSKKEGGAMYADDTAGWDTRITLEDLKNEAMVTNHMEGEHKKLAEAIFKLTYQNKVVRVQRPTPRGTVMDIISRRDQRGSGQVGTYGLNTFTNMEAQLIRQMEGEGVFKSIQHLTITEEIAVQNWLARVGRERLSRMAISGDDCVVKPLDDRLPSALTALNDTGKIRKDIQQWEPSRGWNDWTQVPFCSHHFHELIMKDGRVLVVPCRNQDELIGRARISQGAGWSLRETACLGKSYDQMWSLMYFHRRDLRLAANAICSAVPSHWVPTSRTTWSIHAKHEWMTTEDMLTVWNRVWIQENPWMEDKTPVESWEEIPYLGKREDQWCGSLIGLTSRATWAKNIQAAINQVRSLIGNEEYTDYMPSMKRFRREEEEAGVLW
smiles,measurement,setting,value
O=C(O)c1ccccc1-c1ccccc1C(=O)Nc1ccc2c(c1)oc(=O)c1ccccc12,IC50,Genome polyprotein,56.3 µM (active)
same,IC50,Protein skinhead-1,> 100 µM (inactive)
c1ccc(-c2cc(-c3nn4c(-c5ccco5)nnc4s3)c3ccccc3n2)cc1,IC50,[1],16.6 µM (active)
CCCCCCCCCCOC(=O)C[N+](C)(C)CC1CCCCC1O (stereo not drawn),EC50,[2],> 50 µM (active)
O=C1CCCC2=C1C(c1ccc(O)c(O)c1)Nc1ccc3ncccc3c12 (stereo not drawn),IC50,[3],2.67 µM (active)
Nc1cc(N2CCOCC2)c(Cl)cc1[N+](=O)[O-],EC50,[2],> 50 µM (active)
Cc1ccc(C2N(c3ccc(Cl)c(Cl)c3)C(=O)C3CCCN32)o1 (stereo not drawn),EC50,[4],4220 nM (active)
O=C1Oc2ccccc2C(=O)/C1=C/c1ccccc1O,IC50,[3],4.18 µM (active)
same,IC50,Genome polyprotein,25.2 µM (active)
Cc1nn(CC(=O)Nc2ccc(N(C)C)cc2)c(C)c1[N+](=O)[O-],IC50,Large T antigen,12.3 µM (active)
same,IC50,[3],7.62 µM (not active)
Clc1ccc(OCCCN2CCCC2)cc1Cl,EC50,[2],> 50 µM (active)
Cc1ccc(N2C(=O)NC(=O)/C(=C/c3ccc(-c4ccc(C(=O)O)c(Cl)c4)o3)C2=O)cc1,IC50,Large T antigen,32.7 µM (active)
same,IC50,[1],5.49 µM (active)
CCOC(=O)C1(CCc2ccccc2)CCN(Cc2c(O)cccc2OC)CC1,EC50,[4],299 nM (active)
CCCC(C)c1nnc(NC(=O)c2cc(C(=O)OC)cc([N+](=O)[O-])c2)s1 (stereo not drawn),IC50,[5],19.6 µM (active)
same,IC50,Fatty acid synthase,7.04 µM (active)
Oc1nc(-c2ccncc2)nc2ccccc12,IC50,[5],44.8 µM (active)
Fc1ccc(COc2ccc(-c3nnco3)cc2)cc1,IC50,Protein skinhead-1,5.67 µM (active)
O=C1CCCCC1C(=O)c1ccccc1 (stereo not drawn),IC50,[3],0.719 µM (not active)
CC(C)(C)NC(=O)C(=O)NNC(=O)COc1ccc(Br)cc1,IC50,Aminopeptidase N,619 µM (active)
same,IC50,cells,17.9 µM (active)
Cn1c(Cc2ccccc2)nnc1SCC(=O)Nc1ccc2c(c1)OCO2,IC50,Protein skinhead-1,> 100 µM (inactive)
COc1ccccc1NC(=O)CN1CCC(c2nc3cc(C)ccc3[nH]2)CC1,EC50,[2],> 50 µM (active)
C=C1CCC[C@]2(C)C[C@H]3OC(=O)C(CNC(C)CCCC(C)C)[C@H]3CC12 (stereo partly drawn),CC50,[6],27 µM (active)
same,CC50,[7],22.1 µM (active)
same,IC50,cells,30.6 µM (active)
S=C(NCCc1c[nH]cn1)NC1CCCC1,EC50,[4],84 nM (active)
COc1ccc(-c2nc(CN3CCC(C(=O)NC4CCCC4)CC3)c(C)o2)cc1OC,EC50,[4],473 nM (active)
Brc1ccc2nc(-c3ccccc3)c(Cc3ccsc3)n2c1,IC50,Protein skinhead-1,> 100 µM (inactive)
C[C@H](NC(=O)C[C@@H]1C[C@@H]2c3cc(NC(=O)Nc4ccc(C(F)(F)F)cc4)ccc3O[C@@H]2[C@@H](CO)O1)c1ccccc1,AC50,[8],20.6 µM (active)
same,AC50,Paired box protein Pax-8,13.2 µM (active)
same,AC50,[9],27.7 µM (active)
same,AC50,[10],37.9 µM (active)
same,AC50,[11],36.8 µM (active)
C[C@@H]1CN([C@H](C)CO)C(=O)c2cc(NC(=O)Nc3ccc(C(F)(F)F)cc3)ccc2O[C@@H](C)CCCCO[C@H]1CN(C)S(=O)(=O)c1ccc(Cl)cc1,AC50,Paired box protein Pax-8,2.41 µM (active)
same,AC50,[10],26.3 µM (active)
same,AC50,[11],> 70 µM (inactive)
COc1ccccc1-c1ccc2c(c1)[C@@H]1[C@@H](CCN1S(=O)(=O)c1ccccc1F)[C@H](CO)N2,AC50,Paired box protein Pax-8,6.87 µM (active)
same,AC50,[10],20.7 µM (active)
c1ccc2oc(N3CCNCC3)nc2c1,EC50,[4],668 nM (active)
O=C(N/N=C/c1ccc(OCCCF)cc1)c1ccc(C(F)(F)F)cc1,IC50,[1],13.2 µM (active)
CN(C)/C=C/C=C1C(=O)CCCC1=O,IC50,[1],7.28 µM (active)
